Tests used:
Format in all cases: in vivo
[1] = test system: Alopecurus myosuroides (ALOMY); experiment: Test 1A glasshouse assay for herbicidal activity, post-emergence; settings: 312 h, evaluated after 13 days, read-out: percentage phytotoxicity ALOMY
Summary of the method: (§1)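 Visual % phytotoxicity (0 = no damage, 100 = total damage) scored 13 d after spraying. Pots sown in standard soil; spray applied 1 d post-sowing for pre-emergence, 8 d for post-emergence. Vehicle acetone/water 50:50 + 0.5% Tween 20; glasshouse 24/16 °C, 14 h light, 65% RH, watered twice daily.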

[2] = test system: Amaranthus retroflexus (AMARE); experiment: as above; settings: 312 h, evaluated after 13 days, read-out: percentage phytotoxicity AMARE
Summary of the method: as §1

[3] = test system: Echinochloa crus-galli (ECHCG); experiment: as above; settings: 312 h, evaluated after 13 days, read-out: percentage phytotoxicity ECHCG
Summary of the method: as §1

Setaria faberi (SETFA) [4] = experiment: as above; settings: 312 h, evaluated after 13 days, read-out: percentage phytotoxicity SETFA
Summary of the method: as §1

[5] = test system: Beta vulgaris (BEAVA, sugar beet); experiment: Test 1B glasshouse assay for herbicidal activity, pre-emergence; settings: 480 h, 20 DAA, read-out: percentage phytotoxicity BEAVA
Procedure: (§2) Seeds of a variety of monocotyledonous and dicotyledonous test plants are sown in standard soil in pots. The plants are cultivated for one day (for pre-emergence) or for about 12 days (range=10-13 days) (for post-emergence) under controlled conditions in a glasshouse (warm climate species at 24/18° C., cool climate species at 20/16° C., both at day/night; 16 hours light; 65% humidity).
(§3) An “instant formulation”, known as the “IF50”, containing 50 g/liter (i.e. 5% w/v) of the “technical” (i.e. unformulated) active ingredient is prepared by dissolving the active ingredient in a mixture of organic solvents and emulsifier, details of which are provided in the Table below. This IF50 is then mixed with a small, variable amount of acetone to aid dissolution, before addition of a 0.2% v/v aqueous solution of the adjuvant X-77 (which is a mixture of alkyl aryl polyoxyethylene glycols and free fatty acids in isopropanol, CAS Registry number 11097-66-8), as the aqueous diluent, to form an aqueous spray solution which contains a predetermined concentration of the active ingredient (which varies depending on the application rate of the active ingredient to the plants) and 0.2% v/v of the adjuvant X-77. This aqueous spray solution is then sprayed onto the plants, after one day's cultivation (for pre-emergence) or after about 12 days' cultivation (for post-emergence).
(§4) The test plants are then grown on, in a glasshouse (greenhouse) under controlled conditions (at either 24/18° C. or 20/16° C. (day/night) as mentioned above; 16 hours light; 65% humidity) and are watered twice daily. Either 15 days after application of the herbicide (15 DAA) (for post-emergence), or 20 days after application of the herbicide (20 DAA) (for pre-emergence), the test plants are evaluated visually, and an assessed percentage phytotoxicity score is given for each herbicidal application on each plant species (where 100%=total damage to plant; 0%=no damage to plant).
(§5) Cool climate crop plants: Triticum aestivum (TRZAW, winter wheat), Brassica napus (BRSNN, rape, also called oilseed rape or rapeseed), Beta vulgaris (BEAVA, sugar beet).

[6] = test system: Brassica napus (BRSNN, rape); experiment: as above; settings: 480 h, 20 DAA, read-out: percentage phytotoxicity BRSNN
Procedure: as §2, §3, §4, §5

[7] = test system: Triticum aestivum (TRZAW, winter wheat); experiment: as above; settings: 480 h, 20 DAA, read-out: percentage phytotoxicity TRZAW
Procedure: as §2, §3, §4, §5

[8] = test system: Glycine max (GLXMA, soybean); experiment: as above; settings: 480 h, 20 DAA, read-out: percentage phytotoxicity GLXMA
Procedure: as §2, §3, §4
(§6) Warm climate crop plants: Glycine max (GLXMA, soybean).

[9] = test system: Digitaria sanguinalis (DIGSA); experiment: as above; settings: 480 h, 20 DAA, read-out: percentage phytotoxicity DIGSA
Procedure: as §2, §3, §4
(§7) Warm climate (“warm season”) grassy monocotyledonous weeds: Setaria faberi (SETFA), SORVU (Sorghum bicolor (L.) Moench ssp. Bicolor, or Sorghum vulgare Pers.), Digitaria sanguinalis (DIGSA), Echinochloa crus-galli (ECHCG), and Brachiaria plantaginea (BRAPL).

[10] = test system: Echinochloa crus-galli (ECHCG); experiment: as above; settings: 480 h, 20 DAA, read-out: percentage phytotoxicity ECHCG
Procedure: as §2, §3, §4, §7

[11] = test system: Glycine max (GLXMA, soybean); experiment: Test 1B glasshouse assay for herbicidal activity, post-emergence; settings: 360 h; for plant injury at 30 g/ha: 30 g/ha application rate; for plant injury at 125 g/ha: 125 g/ha application rate
Procedure: as §2, §3, §4, §6

[12] = test system: Alopecurus myosuroides (ALOMY); experiment: as above; settings: 360 h; for pest or weed control at 30 g/ha: 30 g/ha application rate; for pest or weed control at 125 g/ha: 125 g/ha application rate
Procedure: as §2, §3, §4
(§8) Cool climate (“cool season”) grassy monocotyledonous weeds: Alopecurus myosuroides (ALOMY), Avena fatua (AVEFA), Lolium perenne (LOLPE).

Avena fatua (AVEFA) = experiment: as above; settings: 360 h; for pest or weed control at 30 g/ha: 30 g/ha application rate; for pest or weed control at 125 g/ha: 125 g/ha application rate
Procedure: as §2, §3, §4, §8

Lolium perenne (LOLPE) = experiment: as above; settings: 360 h; for pest or weed control at 30 g/ha: 30 g/ha application rate; for pest or weed control at 125 g/ha: 125 g/ha application rate
Procedure: as §2, §3, §4, §8

[13] = test system: Digitaria sanguinalis (DIGSA); experiment: as above; settings: 360 h; for pest or weed control at 30 g/ha: 30 g/ha application rate; for pest or weed control at 125 g/ha: 125 g/ha application rate
Procedure: as §2, §3, §4, §7

[14] = test system: SORVU (Sorghum bicolor (L.) Moench ssp. Bicolor, or Sorghum vulgare Pers.); experiment: as above; settings: 360 h; for pest or weed control at 30 g/ha: 30 g/ha application rate; for pest or weed control at 125 g/ha: 125 g/ha application rate
Procedure: as §2, §3, §4, §7

Setaria faberi (SETFA) [15] = experiment: as above; settings: 360 h; for pest or weed control at 30 g/ha: 30 g/ha application rate; for pest or weed control at 125 g/ha: 125 g/ha application rate
Procedure: as §2, §3, §4, §7

SMILES | pest or weed control at 250 g/ha [1] [%] | pest or weed control at 250 g/ha [2] [%] | pest or weed control at 250 g/ha [3] [%] | pest or weed control at 250 g/ha (Setaria faberi (SETFA) [4]) [%] | plant injury at 125 g/ha [5] [%] | plant injury at 125 g/ha [6] [%] | plant injury at 30 g/ha [11] [%] | pest or weed control at 30 g/ha [12] [%] | pest or weed control at 30 g/ha (Avena fatua (AVEFA)) [%] | pest or weed control at 30 g/ha (Lolium perenne (LOLPE)) [%] | pest or weed control at 30 g/ha [13] [%] | pest or weed control at 30 g/ha [14] [%] | pest or weed control at 30 g/ha (Setaria faberi (SETFA) [15]) [%] | plant injury at 125 g/ha [11] [%] | pest or weed control at 125 g/ha [12] [%] | pest or weed control at 125 g/ha (Avena fatua (AVEFA)) [%] | pest or weed control at 125 g/ha (Lolium perenne (LOLPE)) [%] | pest or weed control at 125 g/ha [13] [%] | pest or weed control at 125 g/ha [14] [%] | pest or weed control at 125 g/ha (Setaria faberi (SETFA) [15]) [%] | also measured
Cc1cc(C#CCl)cc(C)c1C1C(=O)C2CCC(C2)C1=O (stereo not shown) [Compound A-6] | 70 | 0 | 100 | 90 | 0 | 70 | 0 | 50 | 50 | 40 | 100 | 90 | 100 |  |  |  |  |  |  |  | pest or weed control at 62.5 g/ha [1]: 70%; pest or weed control at 62.5 g/ha [2]: 10%; pest or weed control at 62.5 g/ha [3]: 100%; pest or weed control at 62.5 g/ha (Setaria faberi (SETFA) [4]): 90%; plant injury at 125 g/ha [7]: 10%; plant injury at 125 g/ha [8]: 0%; pest or weed control at 125 g/ha [9]: 100%; pest or weed control at 125 g/ha [10]: 60%; plant injury at 60 g/ha ([11]; 60 g/ha application rate): 0%; pest or weed control at 60 g/ha ([12]; 60 g/ha application rate): 50%; pest or weed control at 60 g/ha (Avena fatua (AVEFA); 60 g/ha application rate): 60%; pest or weed control at 60 g/ha (Lolium perenne (LOLPE); 60 g/ha application rate): 70%; pest or weed control at 60 g/ha ([13]; 60 g/ha application rate): 100%; pest or weed control at 60 g/ha ([14]; 60 g/ha application rate): 90%; pest or weed control at 60 g/ha (Setaria faberi (SETFA) [15]; 60 g/ha application rate): 100%
CC#Cc1cc(C)c(C2C(=O)CC(CC3CCOCC3)CC2=O)c(C)c1 (stereo not shown) [Compound A-9] | 100 | 30 | 100 | 90 | 20 | 80 | 60 | 80 | 70 | 60 | 100 | 80 | 90 |  |  |  |  |  |  |  | plant injury at 125 g/ha [7]: 20%; plant injury at 125 g/ha [8]: 10%; pest or weed control at 125 g/ha [9]: 100%; pest or weed control at 125 g/ha [10]: 90%
CC#Cc1cc(C)c(C2C(=O)C3CCC(C3)C2=O)c(OC)c1 (stereo not shown) [Compound A-10] | 100 | 50 | 100 | 100 | 0 | 0 | 10 | 60 | 20 | 30 | 90 | 100 | 80 | 20 | 100 | 40 | 80 | 100 | 100 | 100 | plant injury at 125 g/ha [7]: 20%; plant injury at 125 g/ha [8]: 0%; pest or weed control at 125 g/ha [9]: 90%; pest or weed control at 125 g/ha [10]: 90%
CC#Cc1cc(Cl)c(C2C(=O)C3CCC(C3)C2=O)c(OC)c1 (stereo not shown) [Compound A-12] | 90 to 100 | 0 to 10 | 100 | 100 |  |  | 0 | 10 | 0 | 0 | 100 | 80 | 70 | 10 | 70 | 30 | 70 | 100 | 100 | 80 | pest or weed control at 62.5 g/ha [1]: 80%; pest or weed control at 62.5 g/ha [2]: 0%; pest or weed control at 62.5 g/ha [3]: 100%; pest or weed control at 62.5 g/ha (Setaria faberi (SETFA) [4]): 100%; plant injury at 250 g/ha [5]: 10%; plant injury at 250 g/ha [6]: 20%; plant injury at 250 g/ha [7]: 30%; plant injury at 250 g/ha [8]: 40%; pest or weed control at 250 g/ha [9]: 100%; pest or weed control at 250 g/ha [10]: 100%
CC#Cc1cc(C)c(C2C(=O)CC(c3ccccn3)CC2=O)c(C)c1 (stereo not shown) [Compound A-13] | 100 | 60 | 100 | 100 |  |  |  |  |  |  |  |  |  | 60 | 30 | 20 | 70 | 80 | 80 | 80 | pest or weed control at 30 g/ha ([1]; 30 g/ha): 70%; pest or weed control at 30 g/ha ([2]; 30 g/ha): 30%; pest or weed control at 30 g/ha ([3]; 30 g/ha): 80%; pest or weed control at 30 g/ha (Setaria faberi (SETFA) [4]; 30 g/ha): 90%; plant injury at 250 g/ha [5]: 10%; plant injury at 250 g/ha [6]: 70%; plant injury at 250 g/ha [7]: 20%; plant injury at 250 g/ha [8]: 20%; pest or weed control at 250 g/ha [9]: 100%; pest or weed control at 250 g/ha [10]: 90%
CC#Cc1cc(C)c(C2=C(OC(=O)OC)CC(c3ccccn3)CC2=O)c(C)c1 (stereo not shown) [Compound A-14] | 100 | 20 | 100 | 100 |  |  | 40 | 70 | 20 | 70 | 80 | 80 | 80 | 70 | 80 | 60 | 80 | 100 | 100 | 90 | plant injury at 250 g/ha [5]: 30%; plant injury at 250 g/ha [6]: 60%; plant injury at 250 g/ha [7]: 40%; plant injury at 250 g/ha [8]: 20%; pest or weed control at 250 g/ha [9]: 100%; pest or weed control at 250 g/ha [10]: 80%

Source: patent US9615577B2, “Herbicidally active cyclic dione compounds, or derivatives therefor, substituted by a phenyl which has an alkynyl-containing substituent” (Syngenta Limited, priority 2012, dated 2017)
